Among the data in the supplement of paper PMC6411743 are pEC50 values, retold here.

Where only a bound is given, the exact number is not on record here.

A word on the pEC50: it is −log10 of the EC50, conventionally taken in molar units.

Compound in one assay: Nc1nc2c(ncn2[C@@H]2O[C@H](COP(=O)(O)OP(=O)(O)OP(=O)(O)O)[C@@H](O)[C@H]2O)c(=O)[nH]1 [guanosine triphosphate]
Nature of the assay: pEC50 of GTP-induced change in protein thermal stability (2D-TPP). The essentials: (§1)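 Each of three independent experiments used Jurkat crude lysate given five concentrations including vehicle (10 min, room temperature), followed by 3 min at one of 12 temperatures from 42 to 63.9 °C and NP40 with benzonase (60 min, 4 °C). TMT LC-MS/MS quantified soluble protein after ultracentrifugation, expressed as fold changes against vehicle at each temperature with median normalisation. For pEC50, dose-response curves were fitted per replicate over adjacent temperature pairs, and hits were called through permutation-based false discovery rate control.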

Compound in another assay: Nc1ncnc2c1ncn2[C@@H]1O[C@H](COP(=O)(O)OP(=O)(O)OP(=O)(O)O)[C@@H](O)[C@H]1O [adenosine triphosphate]
Nature of the assay: pEC50 of ATP-induced change in protein thermal stability (2D-TPP). The essentials:
as §1
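Throughout, for pEC50 of ATP-induced change in protein thermal stability (2D-TPP): lysate dosed with Na-ATP at 0 0.005 0.05 0.5 and 2 mM.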

Sequence of UniProt P49914 (P49914 whole entry): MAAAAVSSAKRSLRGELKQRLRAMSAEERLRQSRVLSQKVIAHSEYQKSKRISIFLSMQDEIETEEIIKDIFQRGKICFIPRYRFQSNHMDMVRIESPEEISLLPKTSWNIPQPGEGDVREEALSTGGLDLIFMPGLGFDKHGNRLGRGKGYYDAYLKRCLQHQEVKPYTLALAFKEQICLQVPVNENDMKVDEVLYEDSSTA
Sequence of UniProt O95140 (O95140 whole entry): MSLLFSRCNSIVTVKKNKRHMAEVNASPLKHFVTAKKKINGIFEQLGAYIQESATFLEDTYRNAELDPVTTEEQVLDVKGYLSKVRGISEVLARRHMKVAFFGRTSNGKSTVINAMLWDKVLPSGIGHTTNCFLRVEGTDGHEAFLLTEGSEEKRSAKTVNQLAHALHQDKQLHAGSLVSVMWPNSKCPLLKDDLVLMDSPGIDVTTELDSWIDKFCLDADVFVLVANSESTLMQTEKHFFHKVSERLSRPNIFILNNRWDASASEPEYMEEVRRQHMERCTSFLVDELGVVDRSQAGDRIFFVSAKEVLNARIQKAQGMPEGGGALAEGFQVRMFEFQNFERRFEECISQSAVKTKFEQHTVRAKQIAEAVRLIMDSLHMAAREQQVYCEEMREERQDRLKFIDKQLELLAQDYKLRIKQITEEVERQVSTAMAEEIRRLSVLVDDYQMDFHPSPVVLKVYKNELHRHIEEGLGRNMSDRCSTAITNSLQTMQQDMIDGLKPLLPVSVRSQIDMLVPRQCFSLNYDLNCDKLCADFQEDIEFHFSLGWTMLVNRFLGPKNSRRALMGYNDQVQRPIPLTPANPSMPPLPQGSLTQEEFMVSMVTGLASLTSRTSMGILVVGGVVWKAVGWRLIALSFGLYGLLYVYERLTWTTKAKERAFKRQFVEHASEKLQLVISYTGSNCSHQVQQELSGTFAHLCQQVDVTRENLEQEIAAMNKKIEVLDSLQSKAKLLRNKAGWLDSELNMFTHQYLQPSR
Sequence of UniProt Q14566 (Q14566 whole entry): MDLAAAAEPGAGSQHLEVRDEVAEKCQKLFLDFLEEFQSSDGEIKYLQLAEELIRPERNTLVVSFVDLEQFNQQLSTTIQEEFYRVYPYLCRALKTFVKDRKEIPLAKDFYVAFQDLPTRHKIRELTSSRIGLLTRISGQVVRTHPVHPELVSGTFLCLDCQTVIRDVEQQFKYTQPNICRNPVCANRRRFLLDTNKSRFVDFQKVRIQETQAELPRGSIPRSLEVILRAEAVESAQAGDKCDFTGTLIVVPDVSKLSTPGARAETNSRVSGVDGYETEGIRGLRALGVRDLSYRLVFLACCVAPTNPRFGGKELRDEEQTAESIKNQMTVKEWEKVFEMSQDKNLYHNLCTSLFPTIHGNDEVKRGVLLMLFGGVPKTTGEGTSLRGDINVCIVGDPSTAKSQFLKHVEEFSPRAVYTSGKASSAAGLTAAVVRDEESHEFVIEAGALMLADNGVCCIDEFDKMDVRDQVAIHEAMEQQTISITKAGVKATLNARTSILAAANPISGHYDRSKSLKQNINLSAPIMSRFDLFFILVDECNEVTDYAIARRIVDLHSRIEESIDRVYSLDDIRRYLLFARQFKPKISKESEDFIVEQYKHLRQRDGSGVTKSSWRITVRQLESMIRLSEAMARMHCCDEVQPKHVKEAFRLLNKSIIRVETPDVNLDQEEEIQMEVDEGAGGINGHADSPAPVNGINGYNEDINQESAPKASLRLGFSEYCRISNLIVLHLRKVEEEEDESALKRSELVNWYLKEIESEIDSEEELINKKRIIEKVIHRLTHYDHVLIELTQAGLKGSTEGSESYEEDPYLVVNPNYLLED
Sequence of UniProt P61244 (P61244 whole entry): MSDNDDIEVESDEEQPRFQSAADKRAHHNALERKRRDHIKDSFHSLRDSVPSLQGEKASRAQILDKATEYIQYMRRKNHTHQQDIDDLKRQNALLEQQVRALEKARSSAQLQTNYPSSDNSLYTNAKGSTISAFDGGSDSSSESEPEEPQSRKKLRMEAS
Sequence of UniProt P04899 (P04899 whole entry): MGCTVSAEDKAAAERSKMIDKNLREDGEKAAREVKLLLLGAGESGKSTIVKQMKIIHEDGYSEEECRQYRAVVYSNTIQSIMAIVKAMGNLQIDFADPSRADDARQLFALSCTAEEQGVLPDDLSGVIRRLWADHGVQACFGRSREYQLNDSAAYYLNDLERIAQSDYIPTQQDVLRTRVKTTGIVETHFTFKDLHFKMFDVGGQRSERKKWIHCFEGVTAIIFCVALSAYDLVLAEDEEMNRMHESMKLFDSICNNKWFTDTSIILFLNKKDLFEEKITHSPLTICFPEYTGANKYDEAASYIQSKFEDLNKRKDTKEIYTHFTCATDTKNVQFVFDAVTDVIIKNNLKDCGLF
Sequence of UniProt Q969Y2 (Q969Y2 whole entry): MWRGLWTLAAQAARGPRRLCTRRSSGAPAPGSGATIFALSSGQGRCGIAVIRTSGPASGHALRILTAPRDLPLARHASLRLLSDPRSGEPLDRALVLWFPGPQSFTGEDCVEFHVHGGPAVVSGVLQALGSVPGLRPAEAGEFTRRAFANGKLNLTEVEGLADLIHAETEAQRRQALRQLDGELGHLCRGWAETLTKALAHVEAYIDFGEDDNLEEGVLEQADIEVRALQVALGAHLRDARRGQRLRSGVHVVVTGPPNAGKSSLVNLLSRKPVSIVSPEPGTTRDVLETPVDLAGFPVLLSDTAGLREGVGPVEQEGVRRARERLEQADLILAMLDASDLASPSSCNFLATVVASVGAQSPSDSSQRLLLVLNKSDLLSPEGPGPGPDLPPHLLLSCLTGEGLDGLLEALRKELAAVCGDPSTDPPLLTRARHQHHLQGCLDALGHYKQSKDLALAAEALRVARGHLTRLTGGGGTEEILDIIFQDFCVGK
Sequence of UniProt P08754 (P08754 whole entry): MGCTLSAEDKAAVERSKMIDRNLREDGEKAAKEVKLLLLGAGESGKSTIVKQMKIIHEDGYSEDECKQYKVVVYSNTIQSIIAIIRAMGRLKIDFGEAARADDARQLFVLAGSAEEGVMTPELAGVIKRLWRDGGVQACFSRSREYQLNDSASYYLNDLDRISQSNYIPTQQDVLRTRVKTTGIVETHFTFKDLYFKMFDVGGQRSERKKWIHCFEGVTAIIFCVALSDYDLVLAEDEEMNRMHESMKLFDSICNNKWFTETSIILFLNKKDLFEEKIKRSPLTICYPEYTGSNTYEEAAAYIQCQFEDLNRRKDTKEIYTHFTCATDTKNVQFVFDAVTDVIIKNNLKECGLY
Sequence of UniProt Q01581 (Q01581 whole entry): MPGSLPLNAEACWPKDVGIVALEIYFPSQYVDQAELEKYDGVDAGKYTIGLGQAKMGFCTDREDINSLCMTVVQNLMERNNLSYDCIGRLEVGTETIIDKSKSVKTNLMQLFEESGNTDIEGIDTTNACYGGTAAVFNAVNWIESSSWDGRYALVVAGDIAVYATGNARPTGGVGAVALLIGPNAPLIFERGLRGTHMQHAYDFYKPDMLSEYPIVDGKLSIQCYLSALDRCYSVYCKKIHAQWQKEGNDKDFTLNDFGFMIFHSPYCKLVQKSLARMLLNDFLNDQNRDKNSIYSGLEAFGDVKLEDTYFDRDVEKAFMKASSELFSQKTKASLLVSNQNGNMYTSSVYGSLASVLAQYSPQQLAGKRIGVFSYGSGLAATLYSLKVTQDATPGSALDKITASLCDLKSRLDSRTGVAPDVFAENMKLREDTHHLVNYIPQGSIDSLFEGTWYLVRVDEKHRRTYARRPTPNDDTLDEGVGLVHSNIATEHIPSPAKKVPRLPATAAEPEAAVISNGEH
Sequence of UniProt P33993 (P33993 whole entry): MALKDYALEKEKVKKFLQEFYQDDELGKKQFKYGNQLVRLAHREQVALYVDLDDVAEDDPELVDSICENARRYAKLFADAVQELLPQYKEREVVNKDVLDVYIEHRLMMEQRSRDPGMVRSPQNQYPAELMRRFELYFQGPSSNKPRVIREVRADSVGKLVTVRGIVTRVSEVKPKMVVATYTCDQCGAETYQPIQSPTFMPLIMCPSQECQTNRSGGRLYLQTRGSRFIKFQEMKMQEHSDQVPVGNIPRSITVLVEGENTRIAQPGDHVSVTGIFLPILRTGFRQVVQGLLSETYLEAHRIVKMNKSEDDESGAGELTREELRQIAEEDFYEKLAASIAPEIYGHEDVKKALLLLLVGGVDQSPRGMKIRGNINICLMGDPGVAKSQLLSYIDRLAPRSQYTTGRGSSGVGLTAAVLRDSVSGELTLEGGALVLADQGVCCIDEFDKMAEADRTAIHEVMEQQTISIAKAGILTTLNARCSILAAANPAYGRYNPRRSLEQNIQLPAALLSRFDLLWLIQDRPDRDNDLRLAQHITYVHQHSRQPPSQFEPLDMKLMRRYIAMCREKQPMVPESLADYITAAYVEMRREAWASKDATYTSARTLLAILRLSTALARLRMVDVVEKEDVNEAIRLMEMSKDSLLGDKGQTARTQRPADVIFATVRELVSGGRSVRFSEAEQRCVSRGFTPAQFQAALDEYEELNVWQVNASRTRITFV
Sequence of UniProt P15170 (P15170 whole entry): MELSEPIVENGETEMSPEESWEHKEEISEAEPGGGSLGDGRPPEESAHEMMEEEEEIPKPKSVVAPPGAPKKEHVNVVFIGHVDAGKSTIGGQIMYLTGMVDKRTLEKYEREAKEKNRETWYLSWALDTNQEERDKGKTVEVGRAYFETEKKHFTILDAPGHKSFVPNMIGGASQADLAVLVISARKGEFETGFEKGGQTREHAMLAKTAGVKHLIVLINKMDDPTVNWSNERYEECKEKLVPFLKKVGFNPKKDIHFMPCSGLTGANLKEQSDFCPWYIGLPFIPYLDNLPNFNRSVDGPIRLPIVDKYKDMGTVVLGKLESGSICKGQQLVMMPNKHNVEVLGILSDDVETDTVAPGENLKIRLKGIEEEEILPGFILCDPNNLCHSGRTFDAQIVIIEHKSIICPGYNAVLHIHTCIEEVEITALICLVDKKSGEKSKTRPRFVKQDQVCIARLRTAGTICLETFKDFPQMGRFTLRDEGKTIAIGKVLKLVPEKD

In the case of “GMPPB (effect direction: stabilized) (UniProt Q9Y5P6)”, the figures for the pEC50 with guanosine triphosphate and with adenosine triphosphate were 3.82 and 3.2, respectively.

As for “GMPS (effect direction: stabilized) (UniProt P49915)”, the pEC50 with guanosine triphosphate came out at 4.07; in the assay with adenosine triphosphate, 2.85.

As for “GNAI2 (effect direction: stabilized) (UniProt P04899)”, the pEC50 with guanosine triphosphate worked out at 4.51; with adenosine triphosphate, 2.85.

For “GNAI3 (effect direction: stabilized) (UniProt P08754)”, the figures for the pEC50 with guanosine triphosphate and with adenosine triphosphate were 4.36 and below 2.7, respectively.

“GNL1 (effect direction: stabilized) (UniProt P36915)”: the pEC50 with guanosine triphosphate amounted to 4.04; in the assay with adenosine triphosphate it was 2.8.

On to “GSPT1 (effect direction: stabilized) (UniProt P15170)”, for which the pEC50 is 4.01 with guanosine triphosphate and below 2.7 with adenosine triphosphate.

For the target “GTPBP3 (effect direction: stabilized) (UniProt Q969Y2)”, the pEC50 with guanosine triphosphate is 4.67; with adenosine triphosphate, 3.74.

On to “GUK1 (effect direction: stabilized) (UniProt Q16774)”, for which the figures for the pEC50 with guanosine triphosphate and with adenosine triphosphate were 3.91 and 3.78, respectively.

“HARS2 (effect direction: stabilized) (UniProt P49590)”: the pEC50 with guanosine triphosphate is 3.55; in the assay with adenosine triphosphate, 4.13.

In the case of “HARS (effect direction: stabilized) (UniProt P12081)”, the pEC50 in the assay with guanosine triphosphate amounted to 3.69; with adenosine triphosphate, 3.97.

Consider “HMGCS1 (effect direction: stabilized) (UniProt Q01581)”, for which the pEC50 in the assay with guanosine triphosphate worked out at 3.79; with adenosine triphosphate, 3.98.

Consider “HSPA4L (effect direction: stabilized) (UniProt O95757)”, for which the figures for the pEC50 with guanosine triphosphate and in the assay with adenosine triphosphate were 3.83 and 3.54, respectively.

In the case of “IARS2 (effect direction: stabilized) (UniProt Q9NSE4)”, the pEC50 with guanosine triphosphate was 3.71; in the assay with adenosine triphosphate, 4.18.

For “ILK (effect direction: stabilized) (UniProt Q13418)”, the pEC50 with guanosine triphosphate was 4.17; with adenosine triphosphate, 3.37.

“IMPDH2 (effect direction: stabilized) (UniProt P12268)”: the pEC50 with guanosine triphosphate amounted to 3.62; with adenosine triphosphate it was 3.26.

For “IPO7 (effect direction: stabilized) (UniProt O95373)”, the values for the pEC50 with guanosine triphosphate and in the assay with adenosine triphosphate were 3.57 and 3.44, respectively.

In the case of “KIF2A (effect direction: stabilized) (UniProt O00139)”, the negative-log EC50 (pEC50) in the assay with guanosine triphosphate was determined as 4.29; in the assay with adenosine triphosphate, 4.21.

For “LONP1 (effect direction: stabilized) (UniProt P36776)”, the negative logarithm of the EC50 (pEC50) was determined as 3.91 in the assay with guanosine triphosphate and 4.03 in the assay with adenosine triphosphate.

Take “MAX (effect direction: destabilized) (UniProt P61244)”: the values for the negative-log EC50 (pEC50) with guanosine triphosphate and in the assay with adenosine triphosphate were 4.65 and 4.13, respectively.

For the target “MCM2 (effect direction: stabilized) (UniProt P49736)”, the pEC50 in the assay with guanosine triphosphate was determined as 4.06; in the assay with adenosine triphosphate, 3.58.

Turning to “MCM4 (effect direction: stabilized) (UniProt P33991)”, the results for the negative logarithm of the EC50 (pEC50) with guanosine triphosphate and in the assay with adenosine triphosphate were 3.86 and 3.88, respectively.

Turning to “MCM6 (effect direction: stabilized) (UniProt Q14566)”, the figures for the pEC50 with guanosine triphosphate and with adenosine triphosphate were 3.98 and 4.05, respectively.

On to “MCM7 (effect direction: stabilized) (UniProt P33993)”, for which the pEC50 with guanosine triphosphate worked out at 4.14; with adenosine triphosphate it was 3.42.

On to “MFN2 (effect direction: stabilized) (UniProt O95140)”, for which the negative logarithm of the EC50 (pEC50) in the assay with guanosine triphosphate was found to be 4.04; in the assay with adenosine triphosphate, 3.77.

As to “MTHFD1 (effect direction: stabilized) (UniProt P11586)”, the figures for the pEC50 with guanosine triphosphate and in the assay with adenosine triphosphate were 3.95 and 3.71, respectively.

On to “MTHFS (effect direction: stabilized) (UniProt P49914)”, for which the pEC50 with guanosine triphosphate came out at 3.75; in the assay with adenosine triphosphate, 3.33.
